Measurements from US6667341B2, “Delta dicarbonyl compounds and methods for using the same” (Beacon Laboratories, Inc., priority 2000, dated 2003).

The molecules below were run on PC-3 prostate cancer cells (assay: EDR anti-proliferation assay (3H-thymidine incorporation, soft agar), PC-3). Settings: PC-3 cell line; five days incubation; 3H-TdR incorporation; read-out: PC-3 or MCF-7* IC50.
Type: cell-based
Protocol: (§1) Compounds prepared according to Examples 1-7 were tested for anti-proliferation against PC-3 prostate or MCF-7 breast cancer cells. The specific compounds tested include N-methyl-2-(2-methoxyethoxy)acetamidomethyl butyrate; N-methylbutyramidomethyl cinnamate; N-methylcinnamamidomethyl butyrate; cinnamoyloxymethyl thiobutyrate; butyroyloxymethyl thiocinnamate; bis(thiobutyl)methane; 3-oxohexyl cinnamate; and propionoyloxymethyl propionate. Butyric acid and trichostatin, a potent HDAC inhibitor, were used as reference compounds. Both compounds were purchased from Sigma-Aldrich, Milwaukee, Wis.
The PC-3 cell line was maintained in RPMI supplemented with 10% fetal calf serum and antibiotics. The EDR assay was performed as described by Kern and Weisenthal in “Highly Specific Prediction of Antineoplastic Drug Resistance With An In Vitro Assay Using Suprapharmacologic Drug Exposures,” J. Nat. Cancer Inst., 82:582-588 (1990); and Fruehauf and Bosanquet, “In vitro Determination of Drug Response: A Discussion of Clinical Applications,” PPO Updates 7(12):1-16 (1993). Cells were suspended in 0.12% soft agar in complete medium and plated (2,000 cells per well, as determined by preliminary experiments) in different drug concentrations onto a 0.4% agarose underlayer in 24-well plates. Plating cells on agarose underlayers supports the proliferation only of the transformed cells, ensuring that the growth signal stems from the malignant component of the tumor.
All compounds were dissolved in DMSO to 200× stock solutions. Stock solutions were diluted to 20× working solutions using the tissue culture medium, serially diluted and added to the 24-well plates. The concentration range was 0.001 μM to 0.3 μM for trichostatin and 10 μM-1,000 μM for the other compounds. No significant changes in pH of the culture medium were observed under the above conditions. Diluent control wells contained PC3 cells treated with DMSO, at the dilutions used for appropriate drug treatment. All experimental points were represented by two separate wells (duplicates). Positive controls were determined using at least two wells treated with an extremely high dose of cisplatin, an anti-cancer agent. Four wells containing tumor cells that were not treated with drugs served as negative controls in each experiment.
Cells were incubated with drugs under standard culture conditions for five days. Cultures were pulsed with tritiated thymidine (^3H-TdR, New Life Science Products, Boston, Mass.) at 5 μCi per well for the last 48 hours of the culture period.
(§2) Cell culture plates were then heated to 90° C. to liquefy the agarose, and cells were harvested onto glass fiber filters, which were then placed into counting vials containing liquid scintillation fluid. The radioactivity trapped on the filters was counted with a Beckman scintillation counter. The fraction of surviving cells was determined by comparing ^3H-TdR incorporation in treated (experimental points) and untreated (negative control) wells. All drug concentrations are presented as μM, allowing for normalization of drug response curves and direct comparison of the effects of the drugs. Microsoft Excel was used to organize the raw data on EDR experiments, and the SigmaPlot program was utilized to generate drug response curves. All drug response curves were as approximated as sigmoidal equations (characteristic for typical drug response curves) to fit the data. IC50 values were determined using the approximated sigmoidal curves and expressed as μM. Table 12 provides the PC-3 or MCF-7 IC50 data for each of the compounds tested.
Molecule `CCCC(=O)SCSC(=O)CCC` has an IC50 of 40 µM. Molecule `CCCC(=O)CCOC(=O)C=Cc1ccccc1` [3-oxohexyl cinnamate, 3-Oxohexyl Cinnamate] has an IC50 of 40 µM. Work on `CCCC(=O)OCN(C)C(=O)COCCOC` [N-Methyl-2-(2-methoxyethoxy)acetamidomethyl Butyrate] yielded an IC50 of 36 µM. `CCCC(=O)N(C)COC(=O)C=Cc1ccccc1` [N-methylbutyramidomethyl cinnamate, N-Methylbutyramidomethyl Cinnamate] showed an IC50 of 100 µM. Molecule `CCCC(=O)OCN(C)C(=O)C=Cc1ccccc1` [N-methylcinnamamidomethyl butyrate, N-Methylcinnamamidomethyl Butyrate] has an IC50 of 20 µM. For `CCCC(=O)O` [butyric acid, reference compound], the IC50 was greater than 2000 µM. `CCCC(=O)OCOC(=S)C=Cc1ccccc1` [butyroyloxymethyl thiocinnamate, Butyroyloxymethyl Thiocinnamate] gave an IC50 of 30 µM. Molecule `CCCC(=S)OCOC(=O)C=Cc1ccccc1` [cinnamoyloxymethyl thio-butyrate, Cinnamoyloxymethyl Thiobutyrate] has an IC50 of 30 µM. `CC(/C=C/C(=O)NO)=C\[C@@H](C)C(=O)c1ccc(N(C)C)cc1` [trichostatin, reference compound] showed an IC50 of 0.005 µM.

These molecules were tested on MCF-7 breast cancer cells (assay: Anti-proliferation assay, MCF-7). Settings: Homo sapiens, MCF7; value marked *: obtained from MCF-7 cell line; read-out: PC-3 or MCF-7* IC50.
Type: cell-based
Protocol: as §1
as §2, with “Microsoft Excel was used to organize the raw data on EDR experiments, and the SigmaPlot program was utilized to generate drug response curves. All drug response curves were as approximated as sigmoidal equations (characteristic for typical drug response curves) to fit the data.” left out, “Table 12 provides the PC-3 or MCF-7 IC50 data for each of the compounds tested.” left out
Molecule `CCC(=O)OCOC(=S)CC` [propionoyloxymethyl thiopropionate, Propionoyloxymethyl Thiopropionate] has an IC50 of 50 µM.
